Laboratory results: paper PMC4520450, “Procyanidins Negatively Affect the Activity of the Phosphatases of Regenerating Liver” (PLoS ONE, 2015)
Blank lines part the entries; values can stand above or below the compound they belong to.

Tests used:
[1] = molecular target: T1, PRL-3 (Homo sapiens, UniProt O75365); assay: DiFMUP phosphatase activity assay for PRLs; assay type: biochemical; conditions: for IC50: 50 nM PRL-3, 30 min preincubation, 25°C, 21 μM DiFMUP, mean ± SEM (n = 3–5), read-out: IC50 (Ki) PRL-3
T1 construct: His-TEV (cleaved yes); made in house
T1 sequence (O75365 whole entry): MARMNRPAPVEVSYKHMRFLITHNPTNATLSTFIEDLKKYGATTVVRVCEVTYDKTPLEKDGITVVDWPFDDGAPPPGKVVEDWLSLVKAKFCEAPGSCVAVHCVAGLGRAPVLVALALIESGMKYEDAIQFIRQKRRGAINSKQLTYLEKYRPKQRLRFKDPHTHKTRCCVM
Procedure: Biochemical phosphatase activity measurements were carried out in the presence of different concentrations of various polyphenols, compounds 1–11 (Fig 1), using recombinant PRL-3 and 6,8-difluoro-4-methylumbelliferyl phosphate (DiFMUP) as a fluorogenic substrate (see the experimental procedures). We observed that the monomeric epicatechins EGC and EC inhibit PRL-3 only weakly, with a slightly better activity of EGC, which bears three hydroxyl groups at the B-ring. […] In general, as a basic structure activity-relationship the following trend was observed: a higher number of hydroxyl groups at the B-ring increased the activity slightly. […] The influence of the stereochemistry at C(2)–C(3) was studied by using GCG (the trans-epimer of EGCG).
(§1) Fig 2 Effect of polyphenolic compounds 8 (A), 9 (B), 10 (C) and 11 (D) on the phosphatase activity of PRL-1, PRL-2, PRL-3, PP1, and PP2A. Proteins were incubated for 30 min with 0–1000 μM of the corresponding procyandin 8–11. Phosphatase activity was measured in the presence of DiFMUP at 25°C using the concentration corresponding to the KM of each protein. The KM for PRLs was determined separately (PRL-3 = 21 μM, PRL-2 and PRL-1 = 24 μM). The KM for PP1 (91 μM) and for PP2A (100 μM) was taken from the literature. Protein concentrations are 50 nM for all PRLs and 2 mU for PP1 and 0.05 U for PP2A (see the Experimental Procedures). Phosphatase activity in the absence of inhibitors was set as 100%. Data represent means ± standard errors of the mean (n = 3–5).
(§2) DiFMUP assay for PRLs: In a final reaction volume of 100 μL the PRLs (50 nM final concentration) were incubated with decreasing concentrations of the inhibitory polyphenols for 30 minutes at 25°C. The buffer conditions were 108 mM TrisCl (pH 7.5), Triton 0.05% (v/v), DTT 27.0 mM, NaCl 811 mM. After the incubation time 20 μL DiFMUP (6,8-Difluoro-4-methylumbelliferyl phosphate) was added to reach a final concentration of 21 μM for PRL-3 and 24 μM for PRL-1 and PRL-2. On a Tecan safire2 (Tecan, Salzburg, Austria) plate reader dephosphorylation of the substrate to its fluorescent product was monitored by following the emission at 358 nm with excitation at 452 nm for 20 minutes. All measurements were done in triplicates, and the experiments were repeated at least three times. The slopes of the initial phases were obtained by linear regression of the data points. The normalized reaction rates were plotted versus the log of the inhibitor concentrations and the IC50 values were obtained by fitting the curves using the one site competition model of GraphPad Prism (GraphPad Software, Version 5). KM values were determined by measuring reaction kinetics of substrate dilution series. Initial velocities were plotted against DiFMUP concentration and the data was analyzed by Michaelis-Menten kinetics curve fitting of GraphPad Prism. A final DMSO content of 0.4% was maintained for the monomeric catechins. Due to the high water solubility of the procyanidins DMSO was not required and measurements were done in assay buffer only.

[2] = molecular target: protein phosphatase-1; set-up: method as in PMID 22260360; conditions: cited from earlier work
[3] = tested on: PP2A; set-up: method as in PMID 22260360; conditions: cited from earlier work
[4] = molecular target: T2, PRL-1 (Homo sapiens, UniProt Q93096); assay: DiFMUP phosphatase activity assay for PRLs; assay type: biochemical; conditions: 50 nM PRL-1, 30 min preincubation, 25°C, 24 μM DiFMUP; mean ± SEM (n = 3–5); read-out: IC50 (Ki) PRL-1
T2 construct: His-TEV (cleaved yes); made in house
T2 sequence (Q93096 1-173): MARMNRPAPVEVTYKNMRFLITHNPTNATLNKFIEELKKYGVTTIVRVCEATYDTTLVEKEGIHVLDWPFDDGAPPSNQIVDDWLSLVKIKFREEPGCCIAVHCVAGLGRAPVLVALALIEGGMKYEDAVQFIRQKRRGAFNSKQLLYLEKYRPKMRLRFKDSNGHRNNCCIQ
Procedure: as §1, §2

[5] = molecular target: T3, PRL-2 (Homo sapiens, UniProt Q12974); assay: DiFMUP phosphatase activity assay for PRLs; assay type: biochemical; conditions: 50 nM PRL-2, 30 min preincubation, 25°C, 24 μM DiFMUP; mean ± SEM (n = 3–5); read-out: IC50 (Ki) PRL-2
T3 construct: His-TEV (cleaved yes); made in house
T3 sequence (Q12974 1-167): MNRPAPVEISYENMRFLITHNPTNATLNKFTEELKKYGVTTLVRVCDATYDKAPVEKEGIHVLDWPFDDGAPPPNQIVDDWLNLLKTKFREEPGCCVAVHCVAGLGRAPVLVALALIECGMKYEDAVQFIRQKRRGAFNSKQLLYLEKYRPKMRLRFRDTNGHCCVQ
Procedure: as §1, §2

[6] = molecular target: T4, PP1 (Oryctolagus cuniculus, UniProt P62139); assay: DiFMUP assay for PP1; assay type: biochemical
T4 construct: purchased NewEngland Biolabs; host or cells: E. coli
T4 sequence (P62139 whole entry): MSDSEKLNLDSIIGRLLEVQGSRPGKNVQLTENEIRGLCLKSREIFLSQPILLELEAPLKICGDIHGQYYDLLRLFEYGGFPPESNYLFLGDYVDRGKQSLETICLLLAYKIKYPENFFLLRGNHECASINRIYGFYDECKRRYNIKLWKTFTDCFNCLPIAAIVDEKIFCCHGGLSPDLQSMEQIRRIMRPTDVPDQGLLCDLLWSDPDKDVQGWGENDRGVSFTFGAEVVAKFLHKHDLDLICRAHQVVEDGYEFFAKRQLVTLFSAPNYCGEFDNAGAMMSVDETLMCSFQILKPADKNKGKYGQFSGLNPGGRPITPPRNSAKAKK
Procedure: as §1
(§3) BSA, which is usually supplemented to the assay buffer for stabilizing the PPs was however excluded, as BSA is known to form complexes with polyphenolic compounds [40–42] and thus would decrease the concentrations of the inhibitor in the assay. […] In contrast, the phosphatase activity of PP2A was suppressed to a much lesser extent with weak (for trimer 9 and hexamer 11) and strong statistical significance (dimer 8 and tetramer 10). Thus our results corroborate the data reported previously.
DiFMUP assay for PP1: In a final reaction volume of 100 μL PP1c (2 mU final concentration, according to manufacturer’s instructions) were incubated with decreasing concentrations of the inhibitory polyphenols for 30 minutes at 25°C. The assay buffer contained 25 mM imidazole (pH 7.4), 1 mM dithiothreitol (DTT), and 50 mM NaCl. Bovine serum albumin (BSA) was excluded due to possible binding of the polyphenolic compounds. After the incubation time 20 μL DiFMUP (6,8-Difluoro-4-methylumbelliferyl phosphate) was added to reach a final concentration of 100 μM. Monitoring of the fluorescent dephosphorylation product was monitored and data analyzed as described above.

[7] = molecular target: T5, PP2A (Homo sapiens, UniProt P67775); assay: DiFMUP assay for PP2A; assay type: biochemical; conditions: 0.05 U PP2A, 30 min preincubation, 25°C, no BSA, mean ± SEM (n = 3–5), read-out: IC50 (Ki) PP2A
T5 construct: purified from human red blood cells; purchased Merck Millipore; host or cells: human red blood cells
T5 sequence (P67775 whole entry): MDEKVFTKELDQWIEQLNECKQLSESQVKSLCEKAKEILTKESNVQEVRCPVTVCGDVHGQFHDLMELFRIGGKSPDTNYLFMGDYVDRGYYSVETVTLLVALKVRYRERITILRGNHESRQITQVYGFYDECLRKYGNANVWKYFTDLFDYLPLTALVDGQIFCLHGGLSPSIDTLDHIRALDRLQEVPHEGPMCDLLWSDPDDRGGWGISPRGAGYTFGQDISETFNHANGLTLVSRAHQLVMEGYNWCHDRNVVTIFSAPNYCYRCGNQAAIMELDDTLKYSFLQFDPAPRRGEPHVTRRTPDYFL
T5 sequence (P30153 2-589 partner limits assumed): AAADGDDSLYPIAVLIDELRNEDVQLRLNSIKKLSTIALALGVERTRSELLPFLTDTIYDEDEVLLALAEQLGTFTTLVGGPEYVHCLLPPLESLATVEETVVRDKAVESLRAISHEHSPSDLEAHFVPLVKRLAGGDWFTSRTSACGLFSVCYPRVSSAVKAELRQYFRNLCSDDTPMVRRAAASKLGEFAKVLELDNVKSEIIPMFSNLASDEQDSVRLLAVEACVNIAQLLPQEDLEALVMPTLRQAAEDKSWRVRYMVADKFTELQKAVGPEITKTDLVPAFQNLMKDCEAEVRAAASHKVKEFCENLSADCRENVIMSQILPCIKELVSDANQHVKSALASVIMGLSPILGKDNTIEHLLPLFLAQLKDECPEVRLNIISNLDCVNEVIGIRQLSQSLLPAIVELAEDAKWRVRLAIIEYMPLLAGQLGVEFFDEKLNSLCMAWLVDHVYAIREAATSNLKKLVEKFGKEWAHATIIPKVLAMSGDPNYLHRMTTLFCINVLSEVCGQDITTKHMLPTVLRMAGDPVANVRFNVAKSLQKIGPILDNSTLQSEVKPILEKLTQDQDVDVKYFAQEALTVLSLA
Procedure: as §1, §3
Chemicals and vendors were as follows: Synthesis of Procyanidins (dimer to dodecamer) was done as previously reported. EGCG, EGC, ECG and EC were synthesized as previously reported or purchased from Sigma. (+)-Catechin and 3-(4,5-dimethylthiazol-2-yl)-2,5-diphenyltetrazolium bromide (MTT) were obtained from Sigma. 6,8-Difluoro-4-Methylumbelliferyl Phosphate (DiFMUP), propidium iodide and calcein AM were from lifescience technologies. Cell dissociation solution (10X) was purchased from amsbio. PP1c (recombinant from E. coli) was purchased from NewEngland Biolabs and PP2A (purified from human red blood cells, contains different subunits according to manufacturer) from Merck Millipore. Transwell plates (BRANDplates) and insert stripes for the migration assay were purchased from Brand GmbH. Black 96 well plates (96F Nunclon Delta) were purchased from Thermo Scientific. Transparent 96 well assay plates with UV transparent bottom were purchased from Corning Inc. Wound healing experiments were carried out with μ-dish 35 mm culture inserts, which were purchased from Ibidi.
DiFMUP assay for PP2A: In a final reaction volume of 100 μL PP2A (0.05 U final concentration, according to manufacturer’s instructions) were incubated with decreasing concentrations of the inhibitory polyphenols for 30 minutes at 25°C. The assay buffer contained 50 mM TrisCl (pH 7.5), 250 mM NaCl, 0.1 mM EDTA, 1 mM MnCl2, and 2 mM dithiothreitol (DTT). […] Monitoring of the fluorescent dephosphorylation product was monitored and data analyzed as described above.

[8] = molecular target: T2, PRL-1; assay: DiFMUP phosphatase activity assay for PRLs; assay type: biochemical; conditions: Michaelis-Menten and Lineweaver-Burk analysis, DiFMUP hydrolysis
[9] = molecular target: T1, PRL-3; set-up: method as in PMID 20873564; conditions: cited from earlier work
[10] = tested on: Caco-2 cell model; set-up: method as in PMID 23885956; conditions: cited from earlier work
[11] = Michaelis-Menten and Lineweaver-Burk analysis, DiFMUP hydrolysis

increase in PRL-3 inhibition of 3-gallate ester compared to non-gallate (2 vs 1, 4 vs 3) [1]: about two-fold increase
IC50 [1]: 121 ± 5.7 µM
SMILES: O=C(O[C@@H]1Cc2c(O)cc(O)cc2O[C@@H]1c1cc(O)c(O)c(O)c1)c1cc(O)c(O)c(O)c1 [EGCG (4)]
IC50 [2]: 1.35 µM
activity toward PP2A relative to PP1 [3]: ten-fold lower activity

IC50 [1]: 16.3 ± 2.3 µM
type of inhibition, PRL-3 [1, 11]: noncompetitive
IC50 [4]: 2.2 ± 1.1 µM
IC50 [5]: 13.4 ± 2.5 µM
IC50 ([6]; 2 mU PP1c, 30 min preincubation, 25°C, DiFMUP, no BSA, mean ± SEM (n = 3–5), read-out: IC50 (Ki) PP1): 13.8 ± 2.9 µM
type of inhibition, PP1 [6, 11]: noncompetitive
IC50 [7]: 77.9 ± 10.7 µM
type of inhibition, PRL-1 [8]: noncompetitive
SMILES: Oc1cc(O)c2c(c1)O[C@H](c1ccc(O)c(O)c1)[C@@H](O)[C@@H]2c1c(O)cc(O)c2c1O[C@H](c1ccc(O)c(O)c1)[C@@H](O)[C@@H]2c1c(O)cc(O)c2c1O[C@H](c1ccc(O)c(O)c1)[C@@H](O)[C@@H]2c1c(O)cc(O)c2c1O[C@H](c1ccc(O)c(O)c1)[C@@H](O)C2 [Tetramer (10)]

SMILES: O=c1c(O)c(-c2ccc(O)c(O)c2)oc2c(O[C@@H]3O[C@H](CO)[C@@H](O)[C@H](O)[C@H]3O)c(O)cc(O)c12 [gossypin]
PRL-3 phosphatase inhibition in vitro [9]: moderate phosphatase inhibition

SMILES: O=c1c(O)c(-c2cc(O)c(O)c(O)c2)oc2cc(O)cc(O)c12 [myricetin]
PRL-3 phosphatase inhibition in vitro [9]: moderate phosphatase inhibition

SMILES: Oc1cc(O)c2c(c1)O[C@H](c1ccc(O)c(O)c1)[C@H](O)[C@H]2c1c(O)cc(O)c2c1O[C@H](c1ccc(O)c(O)c1)[C@H](O)[C@H]2c1c(O)cc(O)c2c1O[C@H](c1ccc(O)c(O)c1)[C@H](O)C2 [procyanidin C1, reference compound]
permeation [10]: no permeation was detected
